These results are taken from publication PMC8213057, “Targeting ALK2: An Open Science Approach to Developing Therapeutics for the Treatment of Diffuse Intrinsic Pontine Glioma” (Journal of Medicinal Chemistry, 2020).

For one test, the target named is IRAK1 (Homo sapiens, UniProt P51617). Description: biochemical. Particulars: read-out: % enzyme activity, 1 μM; Run 1, Run 2.
For another test, the target named is MSSK1/STK23 (Homo sapiens, UniProt Q9UPE1). The settings on record: 1 μM; Run 1, Run 2.
A further test has as its target T1, ULK3 (Homo sapiens, UniProt Q6PHR2).
T1 sequence (Q6PHR2 1-472): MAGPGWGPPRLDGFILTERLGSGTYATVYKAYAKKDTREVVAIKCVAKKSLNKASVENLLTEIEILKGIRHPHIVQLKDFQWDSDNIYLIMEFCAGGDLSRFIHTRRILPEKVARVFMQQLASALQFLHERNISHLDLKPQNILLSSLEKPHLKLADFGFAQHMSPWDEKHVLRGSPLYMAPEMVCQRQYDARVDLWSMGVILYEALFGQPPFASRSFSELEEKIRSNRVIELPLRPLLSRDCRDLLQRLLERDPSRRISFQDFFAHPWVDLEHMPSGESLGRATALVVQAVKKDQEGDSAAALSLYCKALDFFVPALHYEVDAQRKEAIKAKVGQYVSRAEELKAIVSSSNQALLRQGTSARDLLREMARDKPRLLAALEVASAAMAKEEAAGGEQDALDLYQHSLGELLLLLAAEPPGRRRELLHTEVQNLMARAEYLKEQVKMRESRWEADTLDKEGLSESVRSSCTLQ
Description: biochemical. The settings on record: read-out: % enzyme activity, 1 μM; Run 1, Run 2.

The next test deals with ROS/ROS1 (Homo sapiens, UniProt P08922). The settings on record: 1 μM; Run 1, Run 2.
For another test, the target named is T2, BMPR2 (Homo sapiens, UniProt Q13873).
T2 construct: purchased Reaction Biology Corporation
T2 sequence (Q13873 27-1038): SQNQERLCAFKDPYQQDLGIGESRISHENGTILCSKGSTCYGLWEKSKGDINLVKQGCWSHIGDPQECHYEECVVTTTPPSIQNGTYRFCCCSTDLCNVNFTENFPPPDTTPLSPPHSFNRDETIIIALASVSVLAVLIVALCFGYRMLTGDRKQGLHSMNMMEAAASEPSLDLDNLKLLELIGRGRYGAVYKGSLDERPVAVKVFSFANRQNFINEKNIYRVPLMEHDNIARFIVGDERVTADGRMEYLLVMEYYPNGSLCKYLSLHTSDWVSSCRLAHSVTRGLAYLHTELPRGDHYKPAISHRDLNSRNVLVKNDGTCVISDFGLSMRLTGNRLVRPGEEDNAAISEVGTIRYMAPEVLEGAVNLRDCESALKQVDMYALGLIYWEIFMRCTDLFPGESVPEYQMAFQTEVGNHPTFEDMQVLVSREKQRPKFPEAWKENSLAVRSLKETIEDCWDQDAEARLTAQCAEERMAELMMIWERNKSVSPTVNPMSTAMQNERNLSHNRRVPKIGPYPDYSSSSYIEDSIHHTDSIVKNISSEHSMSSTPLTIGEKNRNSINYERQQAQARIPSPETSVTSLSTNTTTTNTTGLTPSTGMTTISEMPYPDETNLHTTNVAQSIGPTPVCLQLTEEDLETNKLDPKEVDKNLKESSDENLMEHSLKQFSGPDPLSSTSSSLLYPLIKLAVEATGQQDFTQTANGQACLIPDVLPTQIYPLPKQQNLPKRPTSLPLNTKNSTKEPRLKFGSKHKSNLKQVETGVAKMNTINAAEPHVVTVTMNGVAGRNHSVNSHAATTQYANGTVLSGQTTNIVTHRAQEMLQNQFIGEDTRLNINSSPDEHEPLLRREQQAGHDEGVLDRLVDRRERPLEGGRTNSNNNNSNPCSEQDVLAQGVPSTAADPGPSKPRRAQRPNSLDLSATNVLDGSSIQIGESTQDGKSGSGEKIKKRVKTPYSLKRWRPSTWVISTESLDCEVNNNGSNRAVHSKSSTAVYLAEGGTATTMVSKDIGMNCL
Description: 375-member kinase panel. It counts as biochemical. The settings on record: Run 1, Run 2; for % enzyme activity: 1 μM; for remaining activity at 1 µM: read-out: % enzyme activity, 1 μM.

For a further test, the target named is GRK5 (Homo sapiens, UniProt P34947). The settings on record: 1 μM; Run 1, Run 2.
Another test concerns the target TTBK2 (Homo sapiens, UniProt Q6IQ55). The test can be described thus: biochemical. The settings on record: read-out: % enzyme activity, 1 μM; Run 1, Run 2.
Another test concerns the target T3, PKCepsilon (Homo sapiens, UniProt Q02156).
T3 sequence (Q02156 1-737): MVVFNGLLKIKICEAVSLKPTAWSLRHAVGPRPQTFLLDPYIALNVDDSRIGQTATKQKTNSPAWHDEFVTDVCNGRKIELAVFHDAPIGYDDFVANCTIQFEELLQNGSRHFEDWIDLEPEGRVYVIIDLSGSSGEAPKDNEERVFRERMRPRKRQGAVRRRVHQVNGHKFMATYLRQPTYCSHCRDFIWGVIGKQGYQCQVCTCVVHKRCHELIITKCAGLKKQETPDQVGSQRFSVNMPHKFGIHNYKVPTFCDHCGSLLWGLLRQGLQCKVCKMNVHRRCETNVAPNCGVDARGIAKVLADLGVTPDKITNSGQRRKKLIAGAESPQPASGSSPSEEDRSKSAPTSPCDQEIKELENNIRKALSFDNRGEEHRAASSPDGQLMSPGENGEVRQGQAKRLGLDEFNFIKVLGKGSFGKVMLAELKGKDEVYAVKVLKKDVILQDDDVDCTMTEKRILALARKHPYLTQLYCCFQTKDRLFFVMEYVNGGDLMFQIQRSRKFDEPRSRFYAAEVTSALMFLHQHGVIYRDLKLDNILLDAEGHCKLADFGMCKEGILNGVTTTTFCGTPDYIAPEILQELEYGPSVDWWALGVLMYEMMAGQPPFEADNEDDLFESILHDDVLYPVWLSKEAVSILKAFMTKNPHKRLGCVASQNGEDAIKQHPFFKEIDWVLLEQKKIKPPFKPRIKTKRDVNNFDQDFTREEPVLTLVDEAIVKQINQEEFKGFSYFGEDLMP
The settings on record: 1 μM; Run 1, Run 2.

In a further test the target is YES/YES1 (Homo sapiens, UniProt P07947). The settings on record: 1 μM; Run 1, Run 2.
The next test addresses T4, Aurora C (Homo sapiens, UniProt Q9UQB9).
T4 sequence (Q9UQB9 1-309): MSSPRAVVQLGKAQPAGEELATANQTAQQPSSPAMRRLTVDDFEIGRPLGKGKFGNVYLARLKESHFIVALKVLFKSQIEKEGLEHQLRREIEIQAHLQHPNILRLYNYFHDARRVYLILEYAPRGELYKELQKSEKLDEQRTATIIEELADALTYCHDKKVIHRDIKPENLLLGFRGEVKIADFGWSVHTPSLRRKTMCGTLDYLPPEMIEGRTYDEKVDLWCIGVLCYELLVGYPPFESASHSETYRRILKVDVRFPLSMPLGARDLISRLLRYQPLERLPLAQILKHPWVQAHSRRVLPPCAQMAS
Description: biochemical. The settings on record: read-out: % enzyme activity, 1 μM; Run 1, Run 2.

Sequence of MSSK1/STK23 (Q9UPE1 whole entry): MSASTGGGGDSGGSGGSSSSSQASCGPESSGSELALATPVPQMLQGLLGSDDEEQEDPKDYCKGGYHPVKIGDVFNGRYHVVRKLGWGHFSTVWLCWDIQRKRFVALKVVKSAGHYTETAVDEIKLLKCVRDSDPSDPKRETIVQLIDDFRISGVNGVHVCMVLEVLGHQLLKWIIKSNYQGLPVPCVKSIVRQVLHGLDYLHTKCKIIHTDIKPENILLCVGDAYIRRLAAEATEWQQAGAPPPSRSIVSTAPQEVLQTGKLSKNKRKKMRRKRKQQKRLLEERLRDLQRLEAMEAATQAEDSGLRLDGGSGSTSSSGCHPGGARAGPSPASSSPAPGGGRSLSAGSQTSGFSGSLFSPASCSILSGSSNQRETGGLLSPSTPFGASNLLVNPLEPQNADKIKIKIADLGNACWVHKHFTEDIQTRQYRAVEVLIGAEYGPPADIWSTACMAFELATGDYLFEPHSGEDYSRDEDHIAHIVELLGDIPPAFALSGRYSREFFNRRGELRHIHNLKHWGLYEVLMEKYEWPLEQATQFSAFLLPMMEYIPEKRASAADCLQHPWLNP
Sequence of GRK5 (P34947 whole entry): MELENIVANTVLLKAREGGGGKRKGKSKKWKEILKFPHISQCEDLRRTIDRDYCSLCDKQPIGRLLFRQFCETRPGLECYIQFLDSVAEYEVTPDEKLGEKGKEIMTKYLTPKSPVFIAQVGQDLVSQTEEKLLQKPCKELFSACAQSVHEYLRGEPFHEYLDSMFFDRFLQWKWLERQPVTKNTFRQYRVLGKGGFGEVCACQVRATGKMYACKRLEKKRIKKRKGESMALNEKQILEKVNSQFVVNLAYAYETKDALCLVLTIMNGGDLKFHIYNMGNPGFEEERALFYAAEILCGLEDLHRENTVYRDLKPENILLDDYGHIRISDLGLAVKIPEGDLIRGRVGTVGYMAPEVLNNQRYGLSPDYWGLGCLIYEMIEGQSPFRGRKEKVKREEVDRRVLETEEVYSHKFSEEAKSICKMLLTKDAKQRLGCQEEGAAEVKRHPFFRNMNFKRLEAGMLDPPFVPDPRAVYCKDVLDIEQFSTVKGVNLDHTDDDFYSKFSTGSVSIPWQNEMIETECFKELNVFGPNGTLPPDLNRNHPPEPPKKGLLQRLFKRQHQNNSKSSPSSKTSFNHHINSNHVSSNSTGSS
Sequence of TTBK2 (Q6IQ55 whole entry): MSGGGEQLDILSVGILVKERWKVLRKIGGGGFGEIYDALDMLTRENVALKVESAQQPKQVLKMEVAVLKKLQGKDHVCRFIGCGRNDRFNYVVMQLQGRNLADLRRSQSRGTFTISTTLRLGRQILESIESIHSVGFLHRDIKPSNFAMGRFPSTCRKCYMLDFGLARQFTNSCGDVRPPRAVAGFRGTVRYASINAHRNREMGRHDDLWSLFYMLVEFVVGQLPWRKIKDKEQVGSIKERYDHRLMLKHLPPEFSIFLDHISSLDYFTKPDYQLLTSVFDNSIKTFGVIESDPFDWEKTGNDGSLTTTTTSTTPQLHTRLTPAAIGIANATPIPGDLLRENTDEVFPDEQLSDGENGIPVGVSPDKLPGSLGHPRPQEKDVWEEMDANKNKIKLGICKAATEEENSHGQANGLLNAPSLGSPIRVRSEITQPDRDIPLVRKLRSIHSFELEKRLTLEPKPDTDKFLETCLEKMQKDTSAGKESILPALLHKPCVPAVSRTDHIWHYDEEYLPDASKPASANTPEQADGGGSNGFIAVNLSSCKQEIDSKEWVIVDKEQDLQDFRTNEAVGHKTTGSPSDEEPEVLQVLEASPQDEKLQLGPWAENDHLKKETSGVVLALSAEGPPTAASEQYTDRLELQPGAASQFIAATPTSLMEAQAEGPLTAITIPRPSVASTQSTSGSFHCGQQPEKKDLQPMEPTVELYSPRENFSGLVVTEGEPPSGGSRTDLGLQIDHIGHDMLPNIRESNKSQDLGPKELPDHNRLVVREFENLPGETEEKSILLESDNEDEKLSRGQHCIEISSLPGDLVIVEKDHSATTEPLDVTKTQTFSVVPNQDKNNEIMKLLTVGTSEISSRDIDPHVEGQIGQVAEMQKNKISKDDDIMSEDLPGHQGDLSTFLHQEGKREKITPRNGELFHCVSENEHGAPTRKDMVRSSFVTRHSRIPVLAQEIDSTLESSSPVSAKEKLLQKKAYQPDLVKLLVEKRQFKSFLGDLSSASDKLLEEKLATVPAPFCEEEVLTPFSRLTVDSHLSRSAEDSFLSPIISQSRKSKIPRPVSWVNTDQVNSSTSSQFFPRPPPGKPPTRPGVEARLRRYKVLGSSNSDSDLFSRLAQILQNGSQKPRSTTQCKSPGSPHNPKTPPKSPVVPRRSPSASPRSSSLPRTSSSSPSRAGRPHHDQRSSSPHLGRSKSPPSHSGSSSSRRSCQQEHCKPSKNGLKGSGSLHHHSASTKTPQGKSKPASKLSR
Sequence of IRAK1 (P51617 whole entry): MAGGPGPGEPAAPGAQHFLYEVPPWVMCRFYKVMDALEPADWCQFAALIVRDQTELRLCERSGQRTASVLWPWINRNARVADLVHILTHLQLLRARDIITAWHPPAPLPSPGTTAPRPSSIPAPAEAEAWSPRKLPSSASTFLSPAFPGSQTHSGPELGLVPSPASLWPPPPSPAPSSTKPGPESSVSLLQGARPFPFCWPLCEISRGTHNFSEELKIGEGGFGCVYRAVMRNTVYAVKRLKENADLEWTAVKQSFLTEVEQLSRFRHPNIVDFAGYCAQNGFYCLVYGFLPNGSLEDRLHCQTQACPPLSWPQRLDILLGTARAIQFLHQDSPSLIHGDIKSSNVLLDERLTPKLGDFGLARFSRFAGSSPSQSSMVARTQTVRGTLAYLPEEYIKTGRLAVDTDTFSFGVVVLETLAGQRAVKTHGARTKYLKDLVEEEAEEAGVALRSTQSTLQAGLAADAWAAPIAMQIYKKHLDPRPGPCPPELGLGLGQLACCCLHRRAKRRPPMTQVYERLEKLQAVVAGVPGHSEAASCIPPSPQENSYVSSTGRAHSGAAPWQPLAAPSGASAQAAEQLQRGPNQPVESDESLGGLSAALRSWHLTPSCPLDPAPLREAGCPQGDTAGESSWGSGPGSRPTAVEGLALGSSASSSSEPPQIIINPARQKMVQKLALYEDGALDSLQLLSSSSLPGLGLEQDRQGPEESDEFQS
Sequence of YES/YES1 (P07947 whole entry): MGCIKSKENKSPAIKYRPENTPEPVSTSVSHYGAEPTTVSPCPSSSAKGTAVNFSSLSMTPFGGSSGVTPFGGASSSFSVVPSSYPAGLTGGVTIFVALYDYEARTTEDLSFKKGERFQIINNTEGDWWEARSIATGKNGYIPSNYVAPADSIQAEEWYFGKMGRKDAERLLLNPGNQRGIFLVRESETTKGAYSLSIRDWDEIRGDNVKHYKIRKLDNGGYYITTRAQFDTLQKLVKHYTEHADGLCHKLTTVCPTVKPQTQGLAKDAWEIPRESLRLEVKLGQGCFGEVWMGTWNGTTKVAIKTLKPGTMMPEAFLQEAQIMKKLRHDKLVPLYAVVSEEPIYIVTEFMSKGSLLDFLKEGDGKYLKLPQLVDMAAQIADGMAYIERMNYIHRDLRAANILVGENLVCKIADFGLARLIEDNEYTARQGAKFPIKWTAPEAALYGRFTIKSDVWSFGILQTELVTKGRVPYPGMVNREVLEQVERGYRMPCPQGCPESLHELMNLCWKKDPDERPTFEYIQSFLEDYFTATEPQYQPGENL

As for `COc1cc(-c2cncc(-c3ccc(N4CCN(C)CC4)cc3)c2C)cc(F)c1C(N)=O` [Compound 26a, 2-Fluoro-6-methoxy-4-(4-methyl-5-(4-(4-methylpiperazin-1-yl)phenyl)pyridin-3-yl)benzamide], the remaining activity at 1 µM amounted to 103% at IRAK1; 91.5% on ULK3; 89.1% on BMPR2; 97.1% on TTBK2; 105% on Aurora C. For the same compound, the “% enzyme activity” value at MSSK1/STK23 was 98.71%; at ROS/ROS1, 86.47%; at BMPR2 it was 88.40%; on GRK5 it was 99.06%; at PKCepsilon it was 96.64%; at YES/YES1 it was 104.56%.

Regarding `COc1cc(-c2cncc(-c3ccc(N4C[C@@H](C)N(C)[C@@H](C)C4)cc3)c2C)cc(F)c1C(N)=O` [Compound 26c, 2-Fluoro-6-methoxy-4-(4-methyl-5-(4-((3R,5S)-3,4,5-trimethylpiperazin-1-yl)phenyl)pyridin-3-yl)benzamide], the remaining activity at 1 µM worked out at 98.9% at IRAK1; 98.8% at ULK3; 104% at BMPR2; 97.8% at TTBK2; 100% on Aurora C. In addition, the “% enzyme activity” value is given as 99.23% on MSSK1/STK23; 95.54% at ROS/ROS1; 100.11% at BMPR2; 91.62% at GRK5; 105.76% on PKCepsilon; 108.87% at YES/YES1.
